Laboratory results from PMC5216903 (Febs Letters, 2016).

Key:
Assay in all cases: two-electrode voltage clamp of Xenopus oocytes, steady-state current
Conditions in all cases: ND96 buffer pH 7.6, -60 mV; Fe(III) complex of DMA
[1] = test system: Zm-Hv-Zm; type: cell-based, Zea mays; Hordeum vulgare
[2] = target: HvYS1 (Hordeum vulgare, UniProt Q2PGC4); type: cell-based
[3] = test system: Hv-Zm-Hv; type: cell-based, Hordeum vulgare; Zea mays
[4] = target: T1, ZmYS1 (Zea mays, UniProt Q9AY27); type: cell-based
T1 sequence (Q9AY27 1-682): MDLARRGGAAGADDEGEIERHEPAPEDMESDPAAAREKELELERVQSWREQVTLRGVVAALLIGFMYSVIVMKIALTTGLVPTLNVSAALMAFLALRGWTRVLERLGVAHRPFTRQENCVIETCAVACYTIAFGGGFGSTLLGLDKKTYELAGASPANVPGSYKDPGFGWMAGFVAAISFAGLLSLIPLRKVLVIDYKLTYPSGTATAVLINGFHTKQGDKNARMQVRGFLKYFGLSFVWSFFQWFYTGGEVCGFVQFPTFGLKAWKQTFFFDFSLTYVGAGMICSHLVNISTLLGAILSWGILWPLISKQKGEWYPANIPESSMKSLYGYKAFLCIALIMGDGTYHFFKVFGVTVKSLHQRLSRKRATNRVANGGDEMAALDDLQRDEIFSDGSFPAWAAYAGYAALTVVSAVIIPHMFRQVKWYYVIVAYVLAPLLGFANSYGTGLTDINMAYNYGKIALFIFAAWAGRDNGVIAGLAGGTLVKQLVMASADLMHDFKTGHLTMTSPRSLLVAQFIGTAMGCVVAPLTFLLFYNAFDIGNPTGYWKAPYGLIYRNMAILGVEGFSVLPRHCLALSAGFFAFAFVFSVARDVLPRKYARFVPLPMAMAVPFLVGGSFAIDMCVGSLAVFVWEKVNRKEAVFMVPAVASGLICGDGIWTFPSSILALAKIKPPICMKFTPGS

Chain of HvYS1 (Q2PGC4 1-678): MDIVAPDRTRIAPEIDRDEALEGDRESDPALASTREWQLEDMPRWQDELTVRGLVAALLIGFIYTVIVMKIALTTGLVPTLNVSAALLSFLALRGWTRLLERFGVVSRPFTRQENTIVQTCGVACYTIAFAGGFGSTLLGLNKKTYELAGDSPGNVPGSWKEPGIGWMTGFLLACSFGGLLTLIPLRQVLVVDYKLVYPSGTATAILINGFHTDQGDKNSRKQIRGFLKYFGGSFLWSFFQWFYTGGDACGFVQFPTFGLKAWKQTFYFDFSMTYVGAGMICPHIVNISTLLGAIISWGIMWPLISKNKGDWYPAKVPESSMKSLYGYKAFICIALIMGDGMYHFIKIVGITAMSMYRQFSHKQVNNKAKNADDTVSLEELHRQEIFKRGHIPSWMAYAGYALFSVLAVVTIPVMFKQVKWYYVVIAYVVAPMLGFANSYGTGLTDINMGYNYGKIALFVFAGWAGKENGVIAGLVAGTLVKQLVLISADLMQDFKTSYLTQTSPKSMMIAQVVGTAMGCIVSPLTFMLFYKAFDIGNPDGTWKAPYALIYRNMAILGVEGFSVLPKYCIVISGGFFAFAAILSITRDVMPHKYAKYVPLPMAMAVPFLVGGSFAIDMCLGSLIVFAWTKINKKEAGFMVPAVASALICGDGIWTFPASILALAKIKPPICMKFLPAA

Q: How did the Km [1] turn out when `O=C([O-])[C@H](CCN1CC[C@H]1C(=O)[O-])NCC[C@H](O)C(=O)[O-].[Fe+3]` [Fe(III)-DMA] was run?
A: The Km was 44.2 µM.

Q: What about the Km [2] of the same compound?
A: Its Km is 71.8 µM.

Q: And the Km [3]?
A: The Km was 60.8 µM.

Q: And the Km [4]?
A: Its Km is 65.3 µM.
